Data on one compound can be found in BindingDB's records for doi:10.1016/j.bmcl.2009.05.085 (Targacept, 2009).

The target in the experiment is Neuronal acetylcholine receptor subunit alpha-7 (Mus musculus, UniProt P49582). Put plainly: Displacement of [125I]alpha-bungarotoxin from alpha7 nAChR in C57BL/6J mouse hippocampal membrane.

SMILES strings stand for the structures.

Sequence of Neuronal acetylcholine receptor subunit alpha-7 (P49582 whole entry): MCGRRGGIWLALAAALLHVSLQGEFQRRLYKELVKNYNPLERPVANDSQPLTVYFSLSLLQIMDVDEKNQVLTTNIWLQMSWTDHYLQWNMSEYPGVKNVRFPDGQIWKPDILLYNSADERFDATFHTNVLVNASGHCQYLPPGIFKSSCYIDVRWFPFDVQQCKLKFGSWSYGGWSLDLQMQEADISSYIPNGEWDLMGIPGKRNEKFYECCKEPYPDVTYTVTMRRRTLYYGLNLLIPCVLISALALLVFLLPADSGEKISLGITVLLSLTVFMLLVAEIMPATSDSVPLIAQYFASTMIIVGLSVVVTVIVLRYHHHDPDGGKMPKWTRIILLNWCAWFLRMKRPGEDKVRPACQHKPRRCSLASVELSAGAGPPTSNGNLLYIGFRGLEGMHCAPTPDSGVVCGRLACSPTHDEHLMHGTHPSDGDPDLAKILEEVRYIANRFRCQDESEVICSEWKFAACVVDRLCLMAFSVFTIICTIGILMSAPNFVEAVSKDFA

As a reminder, the Ki is a dissociation constant, usually derived from enzyme kinetics or from competition with a known ligand. For the compound `O=C(O)[C@@H](O)[C@H](O)[C@H](O)[C@@H](O)C(=O)O`, the Ki is > 10 µM.
